In patent publication US9920012B2, “Indazole guanidine F1F0-ATPase inhibitors and therapeutic uses thereof” (Lycera Corporation, priority 2012, dated 2018):
Where a name gives a salt, the structure may show the parent alone. Read-outs that look alike come from different tables or passages of the source.

Experiments:
F1F0-ATPase = target: T1, F1F0-ATPase (Bos taurus, UniProt P13621); test: Inhibition of F1F0-ATPase activity in synthesizing ATP; assay type: biochemical; conditions: inhibition of ATP synthesis; detection limit IC50=16 μM; read-out: ATP Syn IC50
T1 construct: from tissue
Protocol: (§1) Exemplary compounds described in above Examples were tested for activity against F1F0-ATPase by measuring the ability of the compounds to inhibit ATP synthesis. In addition, the compounds were assessed for cytotoxicity in Ramos cells. Inhibition of F1F0-ATPase activity in synthesizing ATP and cytotoxicity in Ramos cells were measured according to the procedures described in K. M. Johnson et al. Chemistry & Biology 2005, 12, 485-496.

Ramos cells = test: Cytotoxicity in Ramos cells; assay type: cell-based; conditions: detection limit EC50=16 μM, read-out: Ramos Cell EC50
Protocol: as §1

| IC50 (F1F0-ATPase) [µM] | SMILES | EC50 (Ramos cells; Homo sapiens) [µM] | EC50 (Ramos cells) [µM] |
| --- | --- | --- | --- |
| < 5 | COC[C@H](C)N/C(=N/C(=O)c1ccc(F)c(F)c1)Nc1n[nH]c2cc(Cl)ccc12 [Compound 1, (S)-N-(((6-Chloro-1H-indazol-3-yl)amino)((1-methoxypropan-2-yl)amino)methylene)-3,4-difluorobenzamide] | < 5 |  |
| < 5 | CC1(N/C(=N/C(=O)c2ccc(Cl)cc2)Nc2n[nH]c3ccccc23)CCC1 [Compound A-1] | 5 to 16 |  |
| < 5 | CC(C)CN/C(=N/C(=O)c1ccc(F)c(F)c1)Nc1n[nH]c2ccc(F)cc12 [Compound A-4] |  | 5 to 16 |
| > 16 | CC(C)(C)N/C(=N/C(=O)c1ccc(F)c(F)c1)Nc1n[nH]c2cc(C(F)(F)F)ccc12 [Compound A-7] |  | < 5 |
| < 5 | CC(C)CN/C(=N/C(=O)c1ccc(F)c(F)c1)Nc1n[nH]c2cc(C(F)(F)F)ccc12 [Compound A-8] |  | < 5 |
| < 5 | CC(C)N/C(=N/C(=O)c1ccc(F)c(F)c1)Nc1n[nH]c2cc(C(F)(F)F)ccc12 [Compound A-10] |  | < 5 |
| < 5 | CCOCCCNC(=NC(=O)c1ccc(F)c(F)c1)Nc1n[nH]c2cc(C(F)(F)F)ccc12 [Compound A-11] |  | < 5 |
| < 5 | CCOCCN/C(=N/C(=O)c1ccc(F)c(F)c1)Nc1n[nH]c2cc(C(F)(F)F)ccc12 [Compound A-12] |  | < 5 |
| < 5 | CC(C)CN/C(=N/C(=O)c1ccc(Cl)c(F)c1)Nc1n[nH]c2cc(C(F)(F)F)ccc12 [Compound A-14] |  | < 5 |
| < 5 | CCC(C)NC(=NC(=O)c1ccc(Cl)c(F)c1)Nc1n[nH]c2cc(C(F)(F)F)ccc12 (stereo not shown) [Compound A-16] | 5 to 16 |  |
| < 5 | COC[C@H](C)N/C(=N/C(=O)c1ccc(Cl)c(F)c1)Nc1n[nH]c2cc(C(F)(F)F)ccc12 [Compound A-17] |  | > 16 |
| < 5 | CC(C)N/C(=N/C(=O)c1ccc(Cl)c(F)c1)Nc1n[nH]c2cc(C(F)(F)F)ccc12 [Compound A-18] |  | > 16 |
| < 5 | CCOCCN/C(=N/C(=O)c1ccc(Cl)c(F)c1)Nc1n[nH]c2cc(C(F)(F)F)ccc12 [Compound A-20] |  | > 16 |
| < 5 | CC(C)(C)N/C(=N/C(=O)c1ccc(N2CCOCC2)nc1)Nc1n[nH]c2cc(C(F)(F)F)ccc12 [Compound A-23] |  | 5 to 16 |
| < 5 | CC(C)CN/C(=N/C(=O)c1ccc(N2CCOCC2)nc1)Nc1n[nH]c2cc(C(F)(F)F)ccc12 [Compound A-24] |  | 5 to 16 |
| 5 to 16 | COC[C@H](C)N/C(=N/C(=O)c1ccc(N2CCOCC2)nc1)Nc1n[nH]c2cc(C(F)(F)F)ccc12 [Compound A-26] |  | > 16 |

| IC50 (F1F0-ATPase) [µM] | SMILES | EC50 (Ramos cells; Homo sapiens) [µM] | EC50 (Ramos cells) [µM] |
| --- | --- | --- | --- |
| < 5 | CC(C)(C)CNC(=NC(=O)c1ccc(N2CCOCC2)nc1)Nc1n[nH]c2cc(C(F)(F)F)ccc12 [Compound A-27] | > 16 |  |
| < 5 | CC(C)CN/C(=N/C(=O)c1ccc(F)c(F)c1)Nc1n[nH]c2cc(Cl)ccc12 [Compound A-31] |  | < 5 |
| > 16 | COC[C@H](C)N/C(=N/C(=O)c1ccc(F)c(F)c1)Nc1n[nH]c2cncc(F)c12 [Compound A-33] |  | > 16 |
| > 16 | CC(C)CN/C(=N/C(=O)c1ccc(F)c(F)c1)Nc1n[nH]c2ccccc12 [Compound A-35] |  | > 16 |
| < 5 | CC(C)(C)CNC(=NC(=O)c1ccc(F)c(F)c1)Nc1n[nH]c2ccccc12 [Compound A-36] | < 5 |  |
| 5 to 16 | COC[C@H](C)N/C(=N/C(=O)c1ccc(F)c(F)c1)Nc1n[nH]c2ccccc12 [Compound A-37] |  | > 16 |
| > 16 | CCOCCN/C(=N/C(=O)c1ccc(F)c(F)c1)Nc1n[nH]c2ccccc12 [Compound A-38] |  | > 16 |
| < 5 | CC(C)CN/C(=N/C(=O)c1ccc(F)c(F)c1)Nc1n[nH]c2cncc(Cl)c12 [Compound A-41] |  | < 5 |
| < 5 | CC(C)(C)CN/C(=N/C(=O)c1ccc(F)c(F)c1)Nc1n[nH]c2cncc(Cl)c12 [Compound A-42] |  | 5 to 16 |
| > 16 | COCC(C)NC(=NC(=O)c1ccc(F)c(F)c1)Nc1n[nH]c2cncc(Cl)c12 (stereo not shown) [Compound A-43] | > 16 |  |
| > 16 | CC(C)CN/C(=N/C(=O)c1ccc(F)c(F)c1)Nc1n[nH]c2cccnc12 [Compound A-46] |  | > 16 |
| > 16 | CC(C)(C)CNC(=NC(=O)c1ccc(F)c(F)c1)Nc1n[nH]c2cccnc12 [Compound A-47] | > 16 |  |
| > 16 | COC[C@H](C)N/C(=N/C(=O)c1ccc(F)c(F)c1)Nc1n[nH]c2cccnc12 [Compound A-48] |  | > 16 |
| > 16 | CCOCCN/C(=N/C(=O)c1ccc(F)c(F)c1)Nc1n[nH]c2cccnc12 [Compound A-49] |  | > 16 |
| < 5 | CC(C)(C)N/C(=N/C(=O)c1ccc(F)c(F)c1)Nc1n[nH]c2ccc(C(F)(F)F)cc12 [Compound A-50] |  | < 5 |
| < 5 | CC(C)(C)CN/C(=N/C(=O)c1ccc(F)c(F)c1)Nc1n[nH]c2ccc(C(F)(F)F)cc12 [Compound A-52] |  | < 5 |

Further lines, the compound ahead of its results:

| SMILES | IC50 (F1F0-ATPase) [µM] | EC50 (Ramos cells; Homo sapiens) [µM] | EC50 (Ramos cells) [µM] |
| --- | --- | --- | --- |
| CC(C)(O)CN/C(=N/C(=O)c1ccc(Cl)cc1)Nc1n[nH]c2cc(F)ccc12 [Compound 2, 4-Chloro-N-((6-fluoro-1H-indazol-3-ylamino)((2-hydroxy-2-methylpropyl)amino)methylene)benzamide] | < 5 | > 16 |  |
| COC[C@H](C)N/C(=N/C(=O)c1ccc(F)c(F)c1)Nc1n[nH]c2cc(C(F)(F)F)ccc12 [Compound 3, (S)-3,4-Difluoro-N-(((1-methoxypropan-2-yl)amino)((6-(trifluoromethyl)-1H-indazol-3-yl)amino)methylene)benzamide] | < 5 | < 5 |  |
| COC[C@H](C)NC(=NC(=O)c1ccc(F)c(F)c1)Nc1nn(C(=O)[C@@H](N)C(C)C)c2cc(C(F)(F)F)ccc12 [Compound 6, N-(((1-((S)-2-Amino-3-methylbutanoyl)-6-(trifluoromethyl)-1H-indazol-3-yl)amino)(((S)-1-methoxypropan-2-yl)amino)methylene)-3,4-difluorobenzamide hydrochloride salt] | 5 to 16 | > 16 |  |
| CC(C)N/C(=N/C(=O)c1cccc(F)c1)Nc1n[nH]c2ccc(C(F)(F)F)cc12 [Compound A-2] | < 5 |  | > 16 |
| CC(C)(C)N/C(=N/C(=O)c1ccc(F)c(F)c1)Nc1n[nH]c2ccc(F)cc12 [Compound A-3] | < 5 |  | 5 to 16 |
| CC(C)(C)N/C(=N/C(=O)c1ccc(F)c(F)c1)Nc1n[nH]c2cccc(F)c12 [Compound A-5] | < 5 |  | < 5 |
| CC(C)CN/C(=N/C(=O)c1ccc(F)c(F)c1)Nc1n[nH]c2cccc(F)c12 [Compound A-6] | > 16 |  | > 16 |
| CCC(C)N/C(=N/C(=O)c1ccc(F)c(F)c1)Nc1n[nH]c2cc(C(F)(F)F)ccc12 (stereo not shown) [Compound A-9] | < 5 |  | < 5 |
| CC(C)(C)N/C(=N/C(=O)c1ccc(Cl)c(F)c1)Nc1n[nH]c2cc(C(F)(F)F)ccc12 [Compound A-13] | < 5 |  | 5 to 16 |
| CCOCCCN/C(=N/C(=O)c1ccc(Cl)c(F)c1)Nc1n[nH]c2cc(C(F)(F)F)ccc12 [Compound A-15] | < 5 |  | < 5 |
| O=C(/N=C(\Nc1n[nH]c2cc(C(F)(F)F)ccc12)NC1CCCC1)c1ccc(Cl)c(F)c1 [Compound A-19] | < 5 | < 5 |  |
| O=C(/N=C(\Nc1n[nH]c2cc(C(F)(F)F)ccc12)NC1CCOCC1)c1ccc(Cl)c(F)c1 [Compound A-21] | < 5 | 5 to 16 |  |
| O=C(/N=C(/NCCOCCO)Nc1n[nH]c2cc(C(F)(F)F)ccc12)c1ccc(Cl)c(F)c1 [Compound A-22] | > 16 |  | > 16 |
| O=C(/N=C(\Nc1n[nH]c2cc(C(F)(F)F)ccc12)NC1CCC1)c1ccc(N2CCOCC2)nc1 [Compound A-25] | < 5 | 5 to 16 |  |
| CC(C)(C)CNC(=NC(=O)c1ccc2nonc2c1)Nc1n[nH]c2cc(F)ccc12 [Compound A-28] | 5 to 16 | > 16 |  |
| CC(C)CN/C(=N/C(=O)c1ccc2nonc2c1)Nc1n[nH]c2cc(F)ccc12 [Compound A-29] | < 5 |  | > 16 |
| CCOCCN/C(=N/C(=O)c1ccc2nonc2c1)Nc1n[nH]c2cc(F)ccc12 [Compound A-30] | > 16 |  | > 16 |
| CC(C)(C)N/C(=N/C(=O)c1ccc(F)c(F)c1)Nc1n[nH]c2cncc(F)c12 [Compound A-32] | < 5 |  | 5 to 16 |
| CC(C)(C)N/C(=N/C(=O)c1ccc(F)c(F)c1)Nc1n[nH]c2ccccc12 [Compound A-34] | 5 to 16 |  | 5 to 16 |
| CC1(CN/C(=N/C(=O)c2ccc(F)c(F)c2)Nc2n[nH]c3ccccc23)COC1 [Compound A-39] | 5 to 16 |  | > 16 |
| CC(C)(C)N/C(=N/C(=O)c1ccc(F)c(F)c1)Nc1n[nH]c2cncc(Cl)c12 [Compound A-40] | < 5 |  | < 5 |
| CCOCCN/C(=N/C(=O)c1ccc(F)c(F)c1)Nc1n[nH]c2cncc(Cl)c12 [Compound A-44] | > 16 |  | > 16 |
| CC(C)(C)N/C(=N/C(=O)c1ccc(F)c(F)c1)Nc1n[nH]c2cccnc12 [Compound A-45] | 5 to 16 |  | > 16 |
| CC(C)CN/C(=N/C(=O)c1ccc(F)c(F)c1)Nc1n[nH]c2ccc(C(F)(F)F)cc12 [Compound A-51] | < 5 |  | < 5 |
